Patent publication US9487489B2, “Halogen-substituted pyrazole derivatives as pest-control agents” (BAYER CROPSCIENCE AKTIENGESELLSCHAFT, priority 2013, dated 2016)

Assays:
[1] = tested on: larvae of the mustard beetle (Phaedon cochleariae); assay: Phaedon cochleariae spray test (PHAECO); assay type: in vivo; conditions: Chinese cabbage leaf discs, after 7 days
Method in brief: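 Kill of mustard beetle larvae is read as % mortality 7 days after spraying. Spray liquid: active compound in acetone plus dimethylformamide, brought up with water holding 1000 ppm alkylaryl polyglycol ether emulsifier and diluted further in emulsifier-water.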

[2] = tested on: engorged adult female cattle ticks (Boophilus microplus); assay: Boophilus microplus injection test (BOOPMI Inj); assay type: in vivo; conditions: application rate 20 μg/animal; injection into abdomen; assessed after 7 days
Method in brief: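 Efficacy is read at 7 days as fertile egg laying (100% = no fertile eggs laid; 0% = all eggs fertile), with eggs of unclear fertility stored until larvae hatch at about 42 days. Five engorged adult females per dose each receive an abdominal injection of 1 μl compound dissolved in DMSO.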

[3] = tested on: adult houseflies (Musca domestica); assay: Musca domestica test (MUSCDO); assay type: in vivo; conditions: application rate 100 ppm; after 2 days
Method in brief: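 Groups of 10 adult Musca domestica exposed to a sugar-soaked sponge treated with the water-diluted DMSO preparation of compound at the chosen concentration. Percent kill read at day 2, where 0% means no flies killed and 100% all killed.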

[4] = tested on: greenhouse red spider mite (Tetranychus urticae); assay: Tetranychus urticae spray test, OP-resistant (TETRUR); assay type: in vivo; conditions: bean leaf discs, after 6 days
Method in brief: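 Percent kill, scored 6 days post-spray (0% = none dead, 100% = all dead), on Phaseolus vulgaris leaf discs infested with every life stage of the OP-resistant spider mite. Compound dissolved in acetone plus DMF, diluted to test concentration with emulsifier-containing water (1000 ppm).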

[5] = tested on: caterpillars of the armyworm (Spodoptera frugiperda); assay: Spodoptera frugiperda spray test (SPODFR); assay type: in vivo; conditions: maize leaf discs, after 7 days
Method in brief: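 Percent kill read at day 7 on caterpillar-infested maize leaf discs. Discs were first sprayed with aqueous emulsifier-containing (1000 ppm) preparations made from acetone/dimethylformamide solutions, and dried. Scale: 0% none dead, 100% all dead.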

[6] = tested on: L1 larvae of the Australian sheep blowfly (Lucilia cuprina); assay: Lucilia cuprina test (LUCICU); assay type: in vivo; conditions: application rate 100 ppm; after 2 days
Method in brief: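 Percent mortality read at 2 days; 100% = all larvae killed, 0% = none. Test compound, predissolved in DMSO and water-diluted to the wanted level, was mixed into minced horsemeat holding roughly 20 first-instar larvae.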

[7] = logP determination by HPLC on a reversed-phase column (C18), EEC Directive 79/831 Annex V.A8; assay type: physicochemical; conditions: HPLC on reversed-phase column (C18), acetonitrile/water with formic acid, EEC Directive 79/831 Annex V.A8
Method in brief: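 Per EEC 79/831 Annex V.A8, values derive from HPLC retention at 2.0 ml/min and 55° C on a 50*4.6 C18 column. The 10→95% acetonitrile gradient (0.1%/0.09% formic acid) lasted 4.25 min plus a 1.25 min hold; mass detection was by MSD.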

[8] = tested on: adult dog ticks (Rhipicephalus sanguineus); assay: Rhipicephalus sanguineus in vitro contact test with adult brown dog ticks (T2); conditions: after 48 h
Method in brief: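 Acetone solutions coated onto test tube walls and floor, giving 5 μg/cm^2 at 900 ppm. Five to ten adult ticks held per tube in the dark at room temperature for 48 h, then heated at 45-50° C for up to 5 min; efficacy is the percentage of dead or moribund ticks unable to climb away.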

[9] = tested on: cattle ticks (Boophilus microplus) Parkhurst strain, SP-resistant; assay: Boophilus microplus dip test (BOOPMI Dip); assay type: in vivo; conditions: application rate 100 ppm, assessed after 7 days
Protocol: B. Boophilus microplus-dip Test (BOOPMI Dip)
Test animals: cattle ticks (Boophilus microplus) Parkhurst strain, SP-resistant
Solvent: dimethyl sulphoxide
10 mg of active compound are dissolved in 0.5 ml of dimethyl sulphoxide. For the purpose of preparing a suitable formulation, the active compound solution is diluted with water to the concentration desired in each case.
This active compound preparation is pipetted into tubes. 8-10 adult engorged female cattle ticks (Boophilus microplus) are transferred into a further tube with holes. The tube is immersed into the active compound formulation, and all ticks are completely wetted. After the liquid has run out, the ticks are transferred on filter discs into plastic dishes and stored in a climate-controlled room.
The activity is assessed after 7 days by laying of fertile eggs. Eggs whose fertility is not visible from the outside are stored in a climate-controlled cabinet until the larvae hatch after about 42 days. An efficacy of 100% means that none of the ticks has laid any fertile eggs; 0% means that all eggs are fertile.

[10] = tested on: adult cat fleas (Ctenocephalides felis); assay: Ctenocephalides felis oral test (CTECFE); assay type: in vivo; conditions: application rate 100 ppm in citrated cattle blood; after 2 days
Method in brief: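 Mortality read at 2 days as percent of fleas killed. Compound predissolved in DMSO, diluted into citrated cattle blood and offered to roughly 20 unfed adult C. felis via parafilm membrane feeder.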

[11] = tested on: adult cat fleas (Ctenocephalides felis); assay: Ctenocephalides felis in vitro contact test with adult cat fleas (T1); conditions: after 48 h
Method in brief: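 Adult cat fleas (Ctenocephalides felis), 5-10 per tube, were exposed to the inner surface of 25 ml test tubes coated with compound in acetone. Tubes were incubated lying flat under ambient conditions. Efficacy was then read by standing tubes upright and knocking the fleas to the floor. Fleas that stayed motionless or moved uncoordinatedly counted as dead or moribund, where 100% means all fleas dead or moribund and 0% means none harmed.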

[12] = tested on: green peach aphid (Myzus persicae); assay: Myzus persicae spray test (MYZUPE); assay type: in vivo; conditions: Chinese cabbage leaf discs, after 6 days
Protocol: G. Myzus persicae-spray Test (MYZUPE)
Solvents: 78 parts by weight of acetone
• 1.5 parts by weight of dimethylformamide Emulsifier: alkylaryl polyglycol ether
To produce a suitable preparation of active compound, 1 part by weight of active compound is dissolved using the stated parts by weight of solvent and made up with water comprising an emulsifier concentration of 1000 ppm until the desired concentration is reached. To produce further test concentrations, the preparation is diluted with emulsifier-containing water.
Discs of Chinese cabbage leaves (Brassica pekinensis) infested by all stages of the green peach aphid (Myzus persicae) are sprayed with an active compound preparation of the desired concentration.
After 6 days, the efficacy in % is determined 100% here means that all of the aphids have been killed; 0% means that no aphids have been killed.

SMILES | efficacy in % ([1]; application rate 100 g/ha) | efficacy (laying of fertile eggs) [2] | efficacy (kill in %) [3] | efficacy in % ([4]; application rate 100 g/ha) | efficacy in % ([5]; application rate 100 g/ha) | efficacy (kill in %) [6] | logP [7] | efficacy (dead or moribund ticks) ([8]; application rate 1 μg/cm^2) | efficacy (dead or moribund ticks) ([8]; application rate 5 μg/cm^2) | efficacy (laying of fertile eggs) [9] | efficacy (kill in %) [10] | efficacy (dead or moribund fleas) ([11]; application rate 1 μg/cm^2) | efficacy (dead or moribund fleas) ([11]; application rate 5 μg/cm^2) | efficacy in % ([12]; application rate 100 g/ha) | efficacy in % ([1]; application rate 500 g/ha) | efficacy in % ([4]; application rate 500 g/ha) | efficacy in % ([5]; application rate 500 g/ha) | efficacy in % ([12]; application rate 500 g/ha)
Cn1nc(C(F)(F)F)c(CF)c1-n1cc(-c2ccc(Cl)c(C(=O)NC3CC3)c2)cn1 [Ic-103] | 100% | 100% | 80% | 100% | 100% | 100% | 2.89 | 100% | 100% | 90% | 100% | – | – | – | – | – | – | –
Cn1nc(C(F)(F)C(F)(F)F)c(C(F)(F)F)c1-n1cc(-c2ccc(Cl)c(C(=O)NCC=CCl)c2)cn1 [Ic-112] | – | – | – | 100% | 100% | – | 4.13 | 100% | 100% | 100% | – | 100% | 100% | 100% | – | – | – | –
Cc1ccc(-c2cnn(-c3c(C(F)(F)F)c(C(F)(F)C(F)(F)F)nn3C)c2)cc1C(=O)NC1CC1 [Ic-130] | 100% | – | – | – | – | – | 3.76 | – | – | 100% | – | – | – | – | – | – | – | –
Cc1nnc(NC(=O)c2cc(-c3cnn(-c4c(C(F)(F)F)c(C(F)(F)C(F)(F)F)nn4C)c3)ccc2Cl)o1 [Ic-158] | – | 100% | 90% | – | – | 100% | – | – | – | 100% | 100% | 100% | 100% | – | – | – | – | –
Cc1coc(NC(=O)c2cc(-c3cnn(-c4c(C(F)(F)F)c(C(F)(F)C(F)(F)F)nn4C)c3)ccc2Cl)n1 [Ic-160] | – | 100% | 100% | – | – | 100% | – | 100% | 100% | 100% | 100% | 100% | 100% | – | – | – | – | –
Cn1nccc1NC(=O)c1cc(-c2cnn(-c3c(C(F)(F)F)c(C(F)(F)C(F)(F)F)nn3C)c2)ccc1Cl [Ic-163] | – | 100% | 90% | – | – | 100% | – | 100% | – | – | 100% | 100% | 100% | – | 100% | 100% | 100% | 90%
Cn1nc(C(F)(F)C(F)(F)F)c(C(F)(F)F)c1-n1cc(-c2ccc(F)c(C(=O)NC3(C#N)CC3)c2F)cn1 [Ic-175] | – | 100% | 100% | – | – | 100% | – | – | – | 90% | 100% | 100% | 100% | – | 100% | 100% | 100% | –
